Laboratory results reported in PMC12250302, “Synthesis, Antimicrobial Activities, and Model of Action of Novel Tetralone Derivatives Containing Aminoguanidinium Moiety” (International Journal of Molecular Sciences, 2025).
≈ marks a conversion by molar mass, not a printed value.

What was measured:
Type in all cases: cell-based, Staphylococcus aureus
S. aureus ATCC 29213 = test: MIC and MBC testing, broth microdilution; details: Staphylococcus aureus, ATCC29213, S. aureus ATCC 29213
Procedure, shortened: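 Two-fold serial dilutions of compounds (DMSO stocks) in MH broth, inoculated with log-phase bacteria at 1 × 10^6 CFU/mL and incubated 18 h at 37 °C. MIC is the lowest concentration with no visible growth; triplicates. Levofloxacin positive, 0.1% DMSO negative control.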

MRSA-2 [1] = test: Growth curve (OD600); details: 2D 0.5, 1, 2, 4, 8 µg/mL, vancomycin 0.5 and 1 μg/mL
Procedure: (§1) The growth inhibition and time-dependent killing abilities of 2D were evaluated against S. aureus (ATCC 29213) and MRSA-2. After culturing the strains in MH broth until the logarithmic growth phase, they were diluted with MH broth to 1 × 10^6 CFU/mL. […] OD600 values were measured at predetermined time intervals (0, 1, 2, 4, 6, 8, 10, 12, and 24 h).

S. aureus (ATCC 29213) = test: Growth curve (OD600); details: 2D 0.5, 1, 2, 4, 8 µg/mL, vancomycin 0.5 and 1 μg/mL
Procedure: as §1

MRSA-2 [2] = test: Fluorescence microscopy assay (DAPI/PI); details: vancomycin 4 µg/mL; 2D 4 and 8 μg/mL; 2 h
Procedure: MRSA-2 was cultivated to the logarithmic growth phase, then washed with PBS and resuspended in PBS until the concentration of bacterial suspension reached 1 × 10^8 CFU/mL. […] Thereafter, the samples were incubated with DAPI (10 μM) and PI (10 μM) in the dark for 15 min. The bacterial cells were then subjected to observation under a fluorescence microscope. DMSO served as the negative controls.

**Q.** Which MIC (S. aureus ATCC 29213; 18 h, read-out: MIC) does the source give for `[H]/N=C(\N)NN=C1CCCc2cc(OCCCCCCC)ccc21` [Compound 2D, (E)-2-(6-(heptyloxy)-3,4-dihydronaphthalen-1(2H)-ylidene)hydrazine-1-carboximidamide] here?
**A.** 0.5 µg/mL (≈ 1.58 µM)

**Q.** And the MBC (S. aureus ATCC 29213; read-out: MBC)?
**A.** 4 µg/mL (≈ 12.6 µM)

**Q.** What about the “growth inhibition (growth curve)” value (MRSA-2 [1]) of the same compound?
**A.** able to suppress the growth

**Q.** And the “growth inhibition (growth curve)” value (S. aureus (ATCC 29213))?
**A.** able to suppress the growth

**Q.** What about the “PI red fluorescence (damaged membranes)” value (MRSA-2 [2]) of the same compound?
**A.** a marked tendency to emit red fluorescence
